Assay results as given in ChEMBL document CHEMBL1122334, “New azacannabinoids highly active in the central nervous system” (1983).

What was measured:
Type in all cases: functional
[1] = tested on: Rattus norvegicus; test: The compound was tested for serotonin antagonism in rat at a dose of 80 mg/Kg
[2] = tested on: Rattus norvegicus; test: The compound was tested for hyperexcitability in rat at a dose of 5 mg/Kg
[3] = tested on: Rattus norvegicus; test: The compound was tested for serotonin antagonism in rat at a dose of 20 mg/Kg
[4] = tested on: Rattus norvegicus; test: The compound was tested for decreasing motor activity in rat at a dose of 20 mg/Kg
[5] = tested on: Rattus norvegicus; test: The compound was tested for hyperexcitability in rat at a dose of 20 mg/Kg
[6] = tested on: Rattus norvegicus; test: The compound was tested for methamphetamine antagonism in rat at a dose of 20 mg/Kg
[7] = tested on: Rattus norvegicus; test: The compound was tested for methamphetamine antagonism in rat at a dose of 5 mg/Kg
[8] = tested on: Rattus norvegicus; test: The compound was tested for methamphetamine antagonism in rat at a dose of 80 mg/Kg
[9] = tested on: Rattus norvegicus; test: The compound was tested for decreasing motor activity in rat at a dose of 80 mg/Kg
[10] = tested on: Rattus norvegicus; test: The compound was tested for hyperexcitability in rat at a dose of 80 mg/Kg
[11] = tested on: Rattus norvegicus; test: The compound was tested for decreasing motor activity in rat. at a dose of 5 mg/Kg
[12] = tested on: Mus musculus; test: The compound was tested for analgesic activity using writhing (W) test in mouse at a dose of 10 mg/Kg
[13] = tested on: Rattus norvegicus; test: The compound was tested for serotonin antagonism in rat at a dose of 5 mg/Kg
[14] = tested on: Mus musculus; test: The compound was tested for activity to decrease fighting in mouse at a dose of 5 mg/Kg
[15] = organism: Mus musculus; test: The compound was tested for analgesic activity using writhing (W) test in mouse
[16] = tested on: Rattus norvegicus; test: The compound was tested for decreasing motor activity in rat at a dose of 5 mg/Kg
[17] = tested on: Rattus norvegicus; test: The compound was tested for hyperexcitability in rat. at a dose of 80 mg/Kg
[18] = tested on: Rattus norvegicus; test: The compound was tested for analgesic activity using (RTF) tail-flick test in rat at a dose of 20 mg/Kg
[19] = tested on: Mus musculus; test: The compound was tested for activity to decrease fighting in mouse at a dose of 20 mg/Kg
[20] = tested on: Rattus norvegicus; test: The compound was tested for hyper excitability in rat at a dose of 20 mg/Kg
[21] = tested on: Mus musculus; test: The compound was tested for analgesic activity using writhing (W) test in mouse at a dose of 51 mg/Kg
[22] = tested on: Rattus norvegicus; test: The compound was tested for hyper excitability in rat at a dose of 80 mg/Kg
[23] = tested on: Rattus norvegicus; test: The compound was tested for hyperexcitability in rat. at a dose of 5 mg/Kg
[24] = tested on: Rattus norvegicus; test: The compound was tested for analgesic activity using (RTF) tail-flick test at a dose of 40 mg/Kg
[25] = tested on: Mus musculus; test: The compound was tested for analgesic activity using writhing (W) test in mouse at a dose of 40 mg/Kg
[26] = tested on: Rattus norvegicus; test: The compound was tested for analgesic activity using (RTF) tail-flick test in rat at a dose of 40 mg/Kg
[27] = tested on: Mus musculus; test: The compound was tested for activity to decrease fighting in mouse at a dose of 10 mg/Kg
[28] = tested on: Rattus norvegicus; test: The compound was tested for decreasing motor activity in rat at a dose of 1 mg/Kg
[29] = tested on: Rattus norvegicus; test: The compound was tested for decreasing motor activity in rat at a dose of 4 mg/Kg
[30] = organism: Rattus norvegicus; test: The compound was tested for analgesic activity using (RTF) tail-flick test in rat
[31] = tested on: Rattus norvegicus; test: The compound was tested for decreasing motor activity in rat at a dose of 10 mg/Kg
[32] = tested on: Rattus norvegicus; test: The compound was tested for hyperexcitability in rat at a dose of 10 mg/Kg

CCCCCC(C)C(C)c1cc(O)c2c(c1)OC(C)(C)C1=C2CN(CCC(N)=O)CC1 (configuration not stated)
Decrease in activity [1]: -71%
Possible response [2]: 0%
Decrease in activity [3]: -13%
Decrease in activity [4]: 65%
Possible response [5]: 0%
Decrease in activity [6]: 17%
Decrease in activity [7]: -4%
Decrease in activity [8]: 13%
Decrease in activity [9]: 83%
Possible response [10]: 67%
Decrease in activity [11]: 49%
increase in response [12]: 0%
Decrease in activity [13]: -73%

CCCCCC(C)C(C)c1cc(O)c2c(c1)OC(C)(C)C1=C2CN(CC(=O)NC)CC1 (configuration not stated)
Decrease in activity [1]: 97%
Decrease in fighting [14]: 11%
Possible response [2]: 92%
ED50 [15]: 5.1 mg/kg
Decrease in activity [3]: 21%
Decrease in activity [4]: 66%
Possible response [5]: 100%
Decrease in activity [6]: 72%
Decrease in activity [16]: 33%
Decrease in activity [7]: 72%
Possible response [17]: 100%
Decrease in activity [8]: 72%
increase in response [18]: 92%
Decrease in fighting [19]: 34%
Decrease in activity [9]: 93%
Decrease in activity [13]: -54%

CCCCCC(C)C(C)c1cc(O)c2c(c1)OC(C)(C)C1=C2CN(CC(=O)NC(=O)NC)CC1 (configuration not stated)
Decrease in activity [1]: 89%
Possible response [2]: 35%
Decrease in activity [3]: 50%
Decrease in activity [4]: 68%
Possible response [5]: 71%
Decrease in activity [6]: 66%
Decrease in activity [16]: 63%
Decrease in activity [7]: 38%
Decrease in activity [8]: 54%
Decrease in activity [9]: 88%
Possible response [10]: 81%
Decrease in activity [13]: 34%

CCCCCC(C)C(C)c1cc(O)c2c(c1)OC(C)(C)C1=C2CN(CC(=O)OCC)CC1 (configuration not stated)
Decrease in activity [1]: 89%
Decrease in activity [3]: 56%
Decrease in activity [4]: 19%
Possible response [20]: 12%
Decrease in activity [6]: 54%
increase in response [21]: 51%
Decrease in activity [16]: 49%
Decrease in activity [7]: 18%
Decrease in activity [8]: 81%
Possible response [22]: 81%
Decrease in activity [9]: 60%
increase in response [12]: 35%
Decrease in activity [13]: 60%
Possible response [23]: 0%

CCCCCC(C)C(C)c1cc(O)c2c(c1)OC(C)(C)C1=C2CN(CC(N)=O)CC1 (configuration not stated)
Decrease in activity [1]: 78%
Decrease in fighting [14]: 10%
Possible response [2]: 65%
Decrease in activity [3]: 83%
Decrease in activity [4]: 78%
Possible response [5]: 79%
Decrease in activity [6]: 58%
Decrease in activity [7]: 42%
Decrease in activity [8]: 71%
Decrease in fighting [19]: 21%
increase in response [24]: 132%
Decrease in activity [9]: 86%
increase in response [25]: 82%
Possible response [10]: 98%
Decrease in activity [11]: 28%
increase in response [12]: 6%
Decrease in activity [13]: 71%

CC(CCCc1ccc(F)cc1)c1cc(O)c2c(c1)OC(C)(C)C1=C2CN(CC(=O)N(C)C)CC1 (configuration not stated)
Decrease in activity [1]: 55%
Decrease in fighting [14]: 3%
Possible response [2]: 0%
Decrease in activity [3]: 12%
Decrease in activity [4]: 27%
Possible response [5]: 10%
Decrease in activity [6]: 34%
Decrease in activity [7]: -35%
Decrease in activity [8]: 54%
Decrease in fighting [19]: 12%
Decrease in activity [9]: 68%
Possible response [10]: 69%
Decrease in activity [11]: 0%
increase in response [12]: 24%
Decrease in activity [13]: 11%

CCCCCC(C)C(C)c1cc(O)c2c(c1)OC(C)(C)C1=C2CN(CC(=O)NC(=O)Nc2ccccc2)CC1 (configuration not stated)
Decrease in activity [1]: -17%
Possible response [2]: 0%
Decrease in activity [3]: -15%
Decrease in activity [4]: 42%
Possible response [5]: 0%
Decrease in activity [6]: -24%
Decrease in activity [16]: 37%
Decrease in activity [7]: -37%
Decrease in activity [8]: -28%
Decrease in activity [9]: 51%
Possible response [10]: 0%
Decrease in activity [13]: -56%

CC(CCCc1ccc(F)cc1)c1cc(O)c2c(c1)OC(C)(C)C1=C2CN(CC(=O)NCC(N)=O)CC1 (configuration not stated)
Decrease in activity [1]: 26%
Possible response [2]: 0%
Decrease in activity [3]: -10%
Decrease in activity [4]: 12%
Possible response [5]: 0%
Decrease in activity [6]: 2%
Decrease in activity [16]: -11%
Decrease in activity [7]: 1%
Decrease in activity [8]: 25%
Decrease in activity [9]: 9%
Possible response [10]: 0%
Decrease in activity [13]: -17%

CCCCCC(C)C(C)c1cc(O)c2c(c1)OC(C)(C)C1=C2CN(CC(=O)N(C)C)CC1 (configuration not stated)
Decrease in fighting [14]: 10%
Possible response [2]: 0%
Decrease in activity [4]: 65%
Possible response [5]: 13%
Decrease in activity [6]: -36%
increase in response [26]: 84%
Decrease in activity [7]: -43%
Decrease in activity [8]: 26%
Decrease in fighting [19]: 13%
Decrease in activity [9]: 78%
increase in response [25]: 86%
Possible response [10]: 69%
Decrease in activity [11]: 53%
increase in response [12]: 19%

CNC(=O)CN1CCC2=C(C1)c1c(O)cc(C(C)CCCc3ccc(F)cc3)cc1OC2(C)C (configuration not stated)
Decrease in activity [1]: 92%
Decrease in fighting [14]: 56%
Possible response [2]: 92%
Decrease in activity [3]: 63%
Decrease in activity [4]: 66%
Possible response [5]: 100%
Decrease in activity [6]: 63%
Decrease in activity [7]: 51%
Decrease in activity [8]: 73%
Decrease in fighting [19]: 93%
Decrease in activity [9]: 94%
Possible response [10]: 100%
Decrease in activity [11]: 73%
increase in response [12]: 71%
Decrease in activity [13]: 6%

CCCCCC(C)C(C)c1cc(O)c2c(c1)OC(C)(C)C1=C2CN(CC(=O)Nc2ccccc2)CC1 (configuration not stated)
Decrease in activity [1]: -13%
Possible response [2]: 0%
Decrease in activity [3]: -28%
Decrease in activity [4]: 18%
Possible response [5]: 0%
Decrease in activity [6]: 15%
Decrease in activity [16]: 4%
Decrease in activity [7]: 0%
Decrease in activity [8]: -9%
Decrease in activity [9]: 6%
Possible response [10]: 0%
increase in response [12]: 12%
Decrease in activity [13]: 3%

C#CCN1CCC2=C(C1)c1c(O)cc(C(C)CCCc3ccc(F)cc3)cc1OC2(C)C (configuration not stated)
Decrease in fighting [27]: 47%
Decrease in fighting [14]: -29%
Possible response [2]: 60%
ED50 [15]: 5.3 mg/kg
Possible response [5]: 100%
Decrease in activity [28]: 60%
Decrease in activity [6]: 34%
Decrease in activity [7]: 8%
Decrease in activity [8]: 84%
Decrease in activity [29]: 77%
ED50 [30]: 3.7 mg/kg

CCCCCc1cc(O)c2c(c1)OC(C)(C)[C@@H]1CCC(C)=C[C@@H]21 [DRONABINOL]
Decrease in activity [31]: 41%
Decrease in fighting [14]: 36%
Possible response [2]: 29%
ED50 [15]: 43 mg/kg
Decrease in activity [4]: 72%
Possible response [5]: 100%
Decrease in activity [16]: 15%
ED50 [30]: 27 mg/kg

C#CCN1CCC2=C(C1)c1c(O)cc(C(C)C(C)CCCCC)cc1OC2(C)C (configuration not stated)
Decrease in fighting [27]: 62%
Decrease in activity [1]: 33%
Decrease in activity [31]: 51%
Possible response [32]: 71%
Decrease in fighting [14]: 48%
Possible response [2]: 29%
ED50 [15]: 4.3 mg/kg
Decrease in activity [3]: 84%
Decrease in activity [6]: 80%
Decrease in activity [7]: 59%
Decrease in activity [8]: 73%
ED50 [30]: 14 mg/kg
Decrease in activity [13]: 81%

CCCCCC(C)C(C)c1cc(O)c2c(c1)OC(C)(C)C1=C2CN(C(C)C(=O)NC(N)=O)CC1 (configuration not stated)
Decrease in activity [1]: 98%
Possible response [2]: 50%
Decrease in activity [3]: 43%
Decrease in activity [4]: 67%
Possible response [5]: 63%
Decrease in activity [6]: 50%
Decrease in activity [16]: 67%
Decrease in activity [7]: 47%
Decrease in activity [8]: 81%
Decrease in activity [9]: 83%
Possible response [10]: 77%
Decrease in activity [13]: 11%
